Results as given in article PMC5218480 (PLoS ONE, 2017).

System: MV-4-11 cells
Experiment: Gene expression microarray analysis (Affymetrix PrimeView) and GSEA
Type: cell-based, human
Design: RFU PODN (11730768_x_at) / Fold change /veh PODN (11730768_x_at) / RFU LINC00158 (11744669_a_at) / Fold change /veh LINC00158 (11744669_a_at) / RFU DUSP10 (11751237_a_at) / Fold change /veh DUSP10 (11751237_a_at) / RFU ID3 (11757404_x_at) / Fold change /veh ID3 (11757404_x_at) / RFU PLEKHG5 (11737974_s_at) / Fold change /veh PLEKHG5 (11737974_s_at) / RFU LRRC4B (11730491_at) / Fold change /veh LRRC4B (11730491_at) / RFU GIMAP4 (11747438_a_at) / Fold change /veh GIMAP4 (11747438_a_at) / RFU KRT8 (11758183_x_at) / Fold change /veh KRT8 (11758183_x_at) / RFU CNN1 (11734310_a_at) / Fold change /veh CNN1 (11734310_a_at) / RFU VPS37D (11726825_at) / Fold change /veh VPS37D (11726825_at) / RFU C10orf10 (11716522_x_at) / Fold change /veh C10orf10 (11716522_x_at) / RFU KIR2DL2 /// KIR2DL4 /// KIR2DL5A /// KIR2DL5B /// KIR2DS1 /// KIR2DS2 /// KIR2DS3 /// KIR2DS4 /// KIR3DL3 /// KIR3DL3 /// KIR3DS1 (11738374_at) / Fold change /veh KIR2DL2 /// KIR2DL4 /// KIR2DL5A /// KIR2DL5B /// KIR2DS1 /// KIR2DS2 /// KIR2DS3 /// KIR2DS4 /// KIR3DL3 /// KIR3DL3 /// KIR3DS1 (11738374_at) / RFU C1QL1 (11718748_at) / Fold change /veh C1QL1 (11718748_at) / RFU TMPRSS4 (11747572_a_at) / Fold change /veh TMPRSS4 (11747572_a_at) / RFU HAMP (11756126_x_at) / Fold change /veh HAMP (11756126_x_at) / RFU RNFT2 (11725882_a_at) / Fold change /veh RNFT2 (11725882_a_at) / RFU NR4A2 (11747474_a_at) / Fold change /veh NR4A2 (11747474_a_at) / RFU ABCC12 (11746883_a_at) / Fold change /veh ABCC12 (11746883_a_at) / RFU TMEM136 (11760407_x_at) / Fold change /veh TMEM136 (11760407_x_at) / RFU CLDN22 /// WWC2 (11732394_at) / Fold change /veh CLDN22 /// WWC2 (11732394_at) / RFU HLA-DPB1 (11760878_x_at) / Fold change /veh HLA-DPB1 (11760878_x_at) / RFU SPINT1 (11716480_a_at) / Fold change /veh SPINT1 (11716480_a_at) / RFU GAP43 (11754022_s_at) / Fold change /veh GAP43 (11754022_s_at) / RFU A4GNT (11735810_at) / Fold change /veh A4GNT (11735810_at) / RFU PRB3 (11715151_x_at) / Fold change /veh PRB3 (11715151_x_at) / RFU TUBB4B (11761932_at) / Fold change /veh TUBB4B (11761932_at) / RFU CAPN14 (11732068_a_at) / Fold change /veh CAPN14 (11732068_a_at) / RFU TMCC2 (11721928_a_at) / Fold change /veh TMCC2 (11721928_a_at) / RFU IRGQ (11745062_a_at) / Fold change /veh IRGQ (11745062_a_at) / RFU FAM174B (11720279_a_at) / Fold change /veh FAM174B (11720279_a_at) / RFU TMPRSS4 (11748680_a_at) / Fold change /veh TMPRSS4 (11748680_a_at) / RFU FAM212B (11763350_a_at) / Fold change /veh FAM212B (11763350_a_at) / RFU PLEKHG5 (11743358_a_at) / Fold change /veh PLEKHG5 (11743358_a_at) / RFU ZSCAN30 (11745921_a_at) / Fold change /veh ZSCAN30 (11745921_a_at) / RFU CMKLR1 (11741424_a_at) / Fold change /veh CMKLR1 (11741424_a_at) / RFU LOC101060620 /// MAPK8IP1 (11723275_at) / Fold change /veh LOC101060620 /// MAPK8IP1 (11723275_at) / RFU SPTSSB (11747773_x_at) / Fold change /veh SPTSSB (11747773_x_at) / RFU PRSS12 (11739890_at) / Fold change /veh PRSS12 (11739890_at) / RFU BIN1 (11741810_x_at) / Fold change /veh BIN1 (11741810_x_at) / RFU WNT11 (11732464_a_at) / Fold change /veh WNT11 (11732464_a_at) / RFU C10orf10 (11716521_a_at) / Fold change /veh C10orf10 (11716521_a_at) / RFU C5orf56 (11738089_at) / Fold change /veh C5orf56 (11738089_at) / RFU CYB561 (11721691_x_at) / Fold change /veh CYB561 (11721691_x_at) / RFU ANKRD19P (11752326_a_at) / Fold change /veh ANKRD19P (11752326_a_at) / RFU OR2T12 /// OR2T33 /// OR2T8 (11738714_s_at) / Fold change /veh OR2T12 /// OR2T33 /// OR2T8 (11738714_s_at) / RFU VCAN (11748164_a_at) / Fold change /veh VCAN (11748164_a_at) / RFU JSRP1 (11732532_at) / Fold change /veh JSRP1 (11732532_at) / RFU KRTAP10-11 (11738290_x_at) / Fold change /veh KRTAP10-11 (11738290_x_at) / RFU MYO3A (11730013_a_at) / Fold change /veh MYO3A (11730013_a_at) / RFU EBF3 (11725865_a_at) / Fold change /veh EBF3 (11725865_a_at) / RFU CAMK2N1 (11719241_x_at) / Fold change /veh CAMK2N1 (11719241_x_at) / RFU C5orf56 (11738088_a_at) / Fold change /veh C5orf56 (11738088_a_at) / RFU OLFML3 (11715873_a_at) / Fold change /veh OLFML3 (11715873_a_at) / RFU LOC100653217 /// NTM (11731650_a_at) / Fold change /veh LOC100653217 /// NTM (11731650_a_at) / RFU MAPK11 (11762145_a_at) / Fold change /veh MAPK11 (11762145_a_at) / RFU FIZ1 (11724087_x_at) / Fold change /veh FIZ1 (11724087_x_at) / RFU OASL (11726364_x_at) / Fold change /veh OASL (11726364_x_at) / RFU SOX15 (11748057_x_at) / Fold change /veh SOX15 (11748057_x_at) / RFU CD79A (11719716_a_at) / Fold change /veh CD79A (11719716_a_at) / RFU HIST1H1D (11736915_at) / Fold change /veh HIST1H1D (11736915_at) / RFU CASKIN2 (11723855_a_at) / Fold change /veh CASKIN2 (11723855_a_at) / RFU LOC730098 (11760151_x_at) / Fold change /veh LOC730098 (11760151_x_at) / RFU OR4N2 (11742367_at) / Fold change /veh OR4N2 (11742367_at) / RFU PRRT2 (11749266_a_at) / Fold change /veh PRRT2 (11749266_a_at) / RFU SNX32 (11753110_a_at) / Fold change /veh SNX32 (11753110_a_at) / RFU CDHR5 (11726645_a_at) / Fold change /veh CDHR5 (11726645_a_at) / RFU RCAN1 (11760418_a_at) / Fold change /veh RCAN1 (11760418_a_at) / RFU FAM167A (11723789_a_at) / Fold change /veh FAM167A (11723789_a_at) / RFU FAM26E (11764081_at) / Fold change /veh FAM26E (11764081_at) / RFU ISYNA1 (11749810_s_at) / Fold change /veh ISYNA1 (11749810_s_at) / RFU ACY1 (11761880_at) / Fold change /veh ACY1 (11761880_at) / RFU 11764098_at / Fold change /veh 11764098_at / RFU SAMD14 (11745864_x_at) / Fold change /veh SAMD14 (11745864_x_at) / RFU NPB (11741838_a_at) / Fold change /veh NPB (11741838_a_at) / RFU TMPRSS6 (11731388_a_at) / Fold change /veh TMPRSS6 (11731388_a_at) / RFU KRTAP10-2 (11738614_at) / Fold change /veh KRTAP10-2 (11738614_at) / RFU ARHGAP8 /// PRR5-ARHGAP8 (11727945_x_at) / Fold change /veh ARHGAP8 /// PRR5-ARHGAP8 (11727945_x_at) / RFU KRTAP5-7 /// NADSYN1 (11734609_at) / Fold change /veh KRTAP5-7 /// NADSYN1 (11734609_at) / RFU RASL12 (11751679_a_at) / Fold change /veh RASL12 (11751679_a_at) / RFU CDKN2B (11736163_a_at) / Fold change /veh CDKN2B (11736163_a_at) / RFU PRF1 (11729649_at) / Fold change /veh PRF1 (11729649_at) / RFU, ZNF638 /// ZNF638-IT1 / Fold change vs veh, ZNF638 /// ZNF638-IT1 / RFU, PANK3 / Fold change vs veh, PANK3 / RFU, SH3YL1 / Fold change vs veh, SH3YL1 / RFU, ZEB2 / Fold change vs veh, ZEB2 / RFU, NRIP1 / Fold change vs veh, NRIP1 / RFU, PTTG1IP / Fold change vs veh, PTTG1IP / RFU, CAPN2 / Fold change vs veh, CAPN2 / RFU, MED14 / Fold change vs veh, MED14 / RFU, SNORA58 / Fold change vs veh, SNORA58 / RFU, C1orf63 / Fold change vs veh, C1orf63 / RFU, LRRFIP1 / Fold change vs veh, LRRFIP1 / RFU, NDUFAF7 / Fold change vs veh, NDUFAF7 / RFU, SLC12A2 / Fold change vs veh, SLC12A2 / RFU, IBTK / Fold change vs veh, IBTK / RFU, ESF1 / Fold change vs veh, ESF1 / Fold change vs veh, TMEM50B / RFU, TAOK1 / Fold change vs veh, TAOK1 / RFU, ACBD3 / Fold change vs veh, ACBD3 / RFU, TMA16 / Fold change vs veh, TMA16 / RFU, RWDD3 / Fold change vs veh, RWDD3 / RFU, BCAT1 / Fold change vs veh, BCAT1 / RFU, EDEM3 / Fold change vs veh, EDEM3 / RFU, TMEM33 / Fold change vs veh, TMEM33 / RFU, WDR75 / Fold change vs veh, WDR75 / RFU, AHCTF1 / Fold change vs veh, AHCTF1 / RFU, TFRC / Fold change vs veh, TFRC / RFU, ZDHHC17 / Fold change vs veh, ZDHHC17 / RFU, NOM1 / Fold change vs veh, NOM1 / RFU, ARL8B / Fold change vs veh, ARL8B / RFU, ZBTB11 / Fold change vs veh, ZBTB11 / RFU, TAMM41 / Fold change vs veh, TAMM41 / RFU, KIAA1704 /// LOC100996395 / Fold change vs veh, KIAA1704 /// LOC100996395 / RFU, ING1 / Fold change vs veh, ING1 / RFU, TRMT61B / Fold change vs veh, TRMT61B / RFU, FUBP3 / Fold change vs veh, FUBP3 / RFU, TP53 / Fold change vs veh, TP53 / RFU, TNKS2 / Fold change vs veh, TNKS2 / RFU, ZFP14 / Fold change vs veh, ZFP14 / RFU, ACTR2 / Fold change vs veh, ACTR2 / RFU, PPP3R1 / Fold change vs veh, PPP3R1 / RFU, PIK3R1 / Fold change vs veh, PIK3R1 / RFU, HNRNPA1 / Fold change vs veh, HNRNPA1 / RFU, RNF170 / Fold change vs veh, RNF170 / RFU, ZNF28 / Fold change vs veh, ZNF28 / RFU, RNGTT / Fold change vs veh, RNGTT / RFU, OGT / Fold change vs veh, OGT / RFU, BRD1 / Fold change vs veh, BRD1 / RFU, MARS / Fold change vs veh, MARS / RFU, ZNF655 / Fold change vs veh, ZNF655 / RFU, FAHD1 / Fold change vs veh, FAHD1 / RFU, BDP1 / Fold change vs veh, BDP1 / RFU, LRRCC1 / Fold change vs veh, LRRCC1 / RFU, ARID1A / Fold change vs veh, ARID1A / RFU, ZNF146 / Fold change vs veh, ZNF146 / RFU, ZNF330 / Fold change vs veh, ZNF330 / RFU, GPN3 / Fold change vs veh, GPN3 / RFU, C9orf123 / Fold change vs veh, C9orf123 / RFU, N4BP2L2 / Fold change vs veh, N4BP2L2 / RFU, ARFIP1 / Fold change vs veh, ARFIP1 / RFU, FAM179B / Fold change vs veh, FAM179B / RFU, BCL10 / Fold change vs veh, BCL10 / RFU, UHRF1BP1L / Fold change vs veh, UHRF1BP1L / RFU, BET1 / Fold change vs veh, BET1 / RFU, CNOT2 / Fold change vs veh, CNOT2 / RFU, ZNF268 / Fold change vs veh, ZNF268 / Fold change vs veh, ZNF507 / RFU, DGCR2 / Fold change vs veh, DGCR2 / RFU, WDSUB1 / Fold change vs veh, WDSUB1 / Fold change vs veh, HSP90B1 /// MIR3652 / RFU, ADSS / Fold change vs veh, ADSS / RFU, GK / Fold change vs veh, GK / RFU, ZNF148 / Fold change vs veh, ZNF148 / RFU, TAF9 / Fold change vs veh, TAF9 / RFU, SLC1A5 / Fold change vs veh, SLC1A5 / RFU, SLMO2 / Fold change vs veh, SLMO2 / RFU, ABCC4 / Fold change vs veh, ABCC4 / RFU, LOC101060439 /// RAP1B / Fold change vs veh, LOC101060439 /// RAP1B / RFU, RFX7 / Fold change vs veh, RFX7 / RFU, GTPBP10 / Fold change vs veh, GTPBP10 / RFU, CNEP1R1 / Fold change vs veh, CNEP1R1 / RFU, BIVM-ERCC5 /// ERCC5 / Fold change vs veh, BIVM-ERCC5 /// ERCC5 / RFU, ILF3 / Fold change vs veh, ILF3 / RFU 11762660_at / Fold change /veh 11762660_at / RFU VCAN (11757783_s_at) / Fold change /veh VCAN (11757783_s_at) / RFU DDX43 (11728927_at) / Fold change /veh DDX43 (11728927_at) / RFU KRT8 (11758188_x_at) / Fold change /veh KRT8 (11758188_x_at) / RFU NKD1 (11759106_at) / Fold change /veh NKD1 (11759106_at) / RFU SRD5A1 (11742802_a_at) / Fold change /veh SRD5A1 (11742802_a_at) / RFU TPSAB1 /// TPSB2 (11721975_s_at) / Fold change /veh TPSAB1 /// TPSB2 (11721975_s_at) / RFU GSTM3 (11746129_a_at) / Fold change /veh GSTM3 (11746129_a_at) / RFU IL23R (11737362_x_at) / Fold change /veh IL23R (11737362_x_at) / RFU TMEM51 (11727254_a_at) / Fold change /veh TMEM51 (11727254_a_at) / RFU PIWIL2 (11732686_x_at) / Fold change /veh PIWIL2 (11732686_x_at) / RFU ORM1 (11744905_x_at) / Fold change /veh ORM1 (11744905_x_at) / RFU CCDC152 (11743942_at) / Fold change /veh CCDC152 (11743942_at) / RFU ECM1 (11717891_a_at) / Fold change /veh ECM1 (11717891_a_at) / RFU IL23R (11748794_a_at) / Fold change /veh IL23R (11748794_a_at) / RFU TNFAIP8L3 (11732012_x_at) / Fold change /veh TNFAIP8L3 (11732012_x_at) / RFU MBOAT4 (11741988_at) / Fold change /veh MBOAT4 (11741988_at) / RFU 11764193_at / Fold change /veh 11764193_at / RFU TMEM53 (11763286_at) / Fold change /veh TMEM53 (11763286_at) / RFU MAGEB2 (11727129_at) / Fold change /veh MAGEB2 (11727129_at) / RFU TMEM200A (11744735_a_at) / Fold change /veh TMEM200A (11744735_a_at) / RFU CCDC152 (11751479_a_at) / Fold change /veh CCDC152 (11751479_a_at) / RFU FAM211A (11726209_a_at) / Fold change /veh FAM211A (11726209_a_at) / RFU RGS16 (11746705_a_at) / Fold change /veh RGS16 (11746705_a_at) / RFU VCAN (11755009_s_at) / Fold change /veh VCAN (11755009_s_at) / RFU RHOB (11743442_s_at) / Fold change /veh RHOB (11743442_s_at) / RFU RGS16 (11720943_a_at) / Fold change /veh RGS16 (11720943_a_at) / RFU RGS16 (11720944_at) / Fold change /veh RGS16 (11720944_at) / RFU, VPS4B / Fold change vs veh, VPS4B / RFU, CREB1 / Fold change vs veh, CREB1 / RFU, DNAJC13 / Fold change vs veh, DNAJC13 / RFU, GNAQ / Fold change vs veh, GNAQ / RFU, CDK5R1 / Fold change vs veh, CDK5R1 / RFU, ZRANB3 / Fold change vs veh, ZRANB3 / RFU, CUL4A / Fold change vs veh, CUL4A / RFU, CCNY / Fold change vs veh, CCNY / RFU, UFL1 / Fold change vs veh, UFL1 / RFU, COG3 / Fold change vs veh, COG3 / RFU, DIAPH2 / Fold change vs veh, DIAPH2 / RFU, SKA2 / Fold change vs veh, SKA2 / RFU, AFF3 / Fold change vs veh, AFF3 / RFU, LMF1 / Fold change vs veh, LMF1 / RFU, IPO11 / Fold change vs veh, IPO11 / RFU, DFFB / Fold change vs veh, DFFB / RFU, FOXP1 / Fold change vs veh, FOXP1 / RFU, CARD8 / Fold change vs veh, CARD8 / RFU, STRN3 / Fold change vs veh, STRN3 / RFU, ADK / Fold change vs veh, ADK / RFU, RASSF2 / Fold change vs veh, RASSF2 / RFU, WIPF1 / Fold change vs veh, WIPF1 / RFU, LARP1B / Fold change vs veh, LARP1B / RFU, RASA1 / Fold change vs veh, RASA1 / RFU, RB1 / Fold change vs veh, RB1 / RFU, PPFIA1 / Fold change vs veh, PPFIA1 / RFU, MAT2A / Fold change vs veh, MAT2A / RFU, CCT5 / Fold change vs veh, CCT5 / RFU, WDR92 / Fold change vs veh, WDR92 / RFU, CUX1 / Fold change vs veh, CUX1 / RFU, TTC7A / Fold change vs veh, TTC7A / RFU, TMEM135 / Fold change vs veh, TMEM135 / RFU, DEPTOR / Fold change vs veh, DEPTOR / RFU, CPM / Fold change vs veh, CPM / RFU, DNAJB6 / Fold change vs veh, DNAJB6 / RFU, CACNA2D3 / Fold change vs veh, CACNA2D3 / RFU, DTX4 / Fold change vs veh, DTX4 / RFU, TFCP2 / Fold change vs veh, TFCP2 / RFU, GMCL1 /// GMCL1P1 / Fold change vs veh, GMCL1 /// GMCL1P1 / RFU, AEBP2 / Fold change vs veh, AEBP2 / RFU, SNHG1 /// SNORD22 /// SNORD25 /// SNORD26 /// SNORD27 /// SNORD28 /// SNORD29 /// SNORD31 / Fold change vs veh, SNHG1 /// SNORD22 /// SNORD25 /// SNORD26 /// SNORD27 /// SNORD28 /// SNORD29 /// SNORD31 / Fold change (Aza/veh), C12orf56 (ProbeSet 11735607_a_at) / Fold change (ACY-1035/veh), C12orf56 (ProbeSet 11735607_a_at) / Fold change (Aza/veh), FGFR1OP (ProbeSet 11751329_s_at) / Fold change (ACY-1035/veh), FGFR1OP (ProbeSet 11751329_s_at) / Fold change (Aza/veh), VPS36 (ProbeSet 11739960_a_at) / Fold change (ACY-1035/veh), VPS36 (ProbeSet 11739960_a_at) / RFU SYPL1 (11715823_x_at) / Fold change /veh SYPL1 (11715823_x_at) / RFU IGFBP7 (11715501_s_at) / Fold change /veh IGFBP7 (11715501_s_at) / RFU REEP3 (11722064_at) / Fold change /veh REEP3 (11722064_at) / RFU IGLL1 (11728026_x_at) / Fold change /veh IGLL1 (11728026_x_at): dose or concentration left out as unconfirmed
Settings: MV-4-11 cells, 48 hours

Question: For `Nc1ncn([C@@H]2O[C@H](CO)[C@@H](O)[C@H]2O)c(=O)n1` [azacitidine], which “RFU TMEM51 (11727254_a_at)” value is on record?
Answer: 17.35 RFU
